Test results reported in patent publication US20110245340A1, “Screening Method for Identifying Patients at Risk of Adverse Hepatologic Events” (priority 2009, published 2011).

Columns and labels:
[1] = Large clinical study (more than 6000 pts, 2 year average exposure) in patients with pre-existing coronary artery disease; assay type: in vivo
[2] = Hepatic events in combined dataset of type 2 diabetes mellitus patients using the risk identification tool (exclusion by ApoA1 > ULN or ALT > 2X ULN); assay type: in vivo, human; conditions: for Percent of Hepatic Events: of 14 events
From the text: As noted in Example 2, hepatic events in the sample populations were distributed 71% (17/24) for AGI-1067 treated patients and 29% (7/24) for patients receiving placebo resulting in an AGI-1067 to placebo ratio of 2.4.
There were 14 patients in the combined dataset who had hepatic events using the ALT >5× ULN plus TBL <2× ULN or ALT >3× ULN plus TBL >2× ULN criteria. As noted in Example 2, at randomization the ratio of AGI-1067 to placebo patients was 1.3, the same value as the randomization ratio for AGI-1067 compared to placebo.
When patients with elevated ApoA1 levels or ALT levels of greater than 2.0 times ULN were excluded, 10 hepatic events were eliminated. Of these, 90% were in the AGI-1067 treatment arm. Of the remaining 14 hepatic events, 8 were in AGI-1067 treated patients while 6 were in placebo treated patients. These hepatic events were distributed 57% (8/14) for AGI-1067 patients and 43% (6/14) for patients receiving placebo.
Table 4 summarizes the impact of the exclusionary criteria (primarily ApoA1 elevation) on the number, frequency distribution and ratio of hepatic events for the AGI-1067 and placebo groups in the 3270 type 2 diabetes mellitus patients contained in the datasets.
ALT >2× ULN could also be used as a secondary indicator for exclusion of patients.

[3] = Hepatic events / ALT elevations in combined dataset of diabetes mellitus patients, before use of the risk identification tool; assay type: in vivo, human; conditions: for Number of Patients ALT 3X to ≦ 5X ULN With TBL ≦ 2X ULN: diabetes patients; for Percent of Hepatic Events: of 24 events
Method: Analyses were conducted to identify potential risk factors for drug-induced liver toxicity in clinical studies of the monosuccinic acid ester of probucol (AGI-1067). AGI-1067 represents a new class of therapies targeting certain chronic diseases such as type II diabetes mellitus and atherosclerosis. AGI-1067 functions both as a direct antioxidant and an inducer of endogenous, antioxidant processes such as hemeoxygenase-1 and thioredoxin.
There were 36 patients who had peak elevations of ATL between 3× and ≦5× ULN in the combined dataset of diabetes mellitus patients. […] ALT levels therefore appear to have limited value in assessing potential for hepatotoxicity.
There were 24 diabetes patients in the combined dataset who had hepatic events as using a criteria of either ALT >5× ULN plus TBL <2× ULN or ALT >3× ULN plus TBL >2× ULN criteria. At randomization, 57% of the patients were in the AGI-1067 arm and 43% were in the placebo arm resulting in an AGI-1067 to placebo ratio of 1.3. Of the 24 hepatic events, 17 occurred in AGI-1067 treated patients and 7 occurred in placebo treated patients. […]

[4] = in vivo; cited from earlier work
[5] = using the risk identification tool, 75 mg
[6] = using the risk identification tool, 150 mg
[7] = using the risk identification tool, 300 mg
[8] = using the risk identification tool, AGI-1067 all doses
[9] = before use of the risk identification tool, 75 mg
[10] = before use of the risk identification tool, 150 mg
[11] = before use of the risk identification tool, 300 mg
[12] = before use of the risk identification tool, AGI-1067 all doses

Compound: CC(C)(Sc1cc(C(C)(C)C)c(O)c(C(C)(C)C)c1)Sc1cc(C(C)(C)C)c(OC(=O)CCC(=O)O)c(C(C)(C)C)c1 [AGI-1067, monosuccinic acid ester of probucol]
- Number of patients demonstrating elevated ALT and bilirubin ([1]; of 3078 patients randomized to AGI-1067, four in the placebo arm): eight
- HbA1c levels ([1]; subset of patients with type 2 diabetes mellitus): lower HbA1c levels
- Hard cardiovascular endpoints (composite of cardiovascular death, non-fatal MI and non-fatal stroke) ([1]; well-treated patients with pre-existing coronary artery disease): reduce hard cardiovascular endpoints
- Incidence of hepatic events after application of the exclusionary criteria ([2]; 8/1851 patients): 0.4%
- Decrease (↓) of total number of hepatic events by using the risk identification tool ([2]; AGI-1067 all doses, versus before use of the tool): 53%
- Excluded hepatic events relative to placebo patients using Baseline ApoA1 as predictive biomarker ([2]; Baseline ApoA1): seven times more excluded hepatic events
- Number of Hepatic Events Excluded ([2]; Totals of all biomarkers): 9
- Number of Hepatic Events Excluded ([2]; biomarker Apo A1 > 165 mg/dl): 7
- Number of Hepatic Events Excluded ([2]; biomarker Baseline ALT > 2X ULN): 1
- Number of Hepatic Events Excluded ([2]; biomarker Month 1 ALT > 2X ULN): 1
- Share of the 10 eliminated hepatic events that were in the AGI-1067 treatment arm ([2]; exclusion of elevated ApoA1 or ALT > 2.0 times ULN): 90%
- Number of hepatic events versus placebo arm after excluding patients with ApoA1 above ULN (165 mg/dl) before drug ([2]; human, in vivo): achieved parity
- Ratio 1067/Placebo Hepatic Events ([2]; using the risk identification tool): 1.3
- Number of Hepatic Events ALT > 3X ULN Plus TBL > 2X ULN [2, 5]: 0
- Number of Hepatic Events ALT > 5X ULN With TBL ≦ 2X ULN [2, 5]: 2
- Number of Hepatic Events Total [2, 5]: 2
- Percent of Hepatic Events [2, 5]: 14%
- Number of Hepatic Events ALT > 3X ULN Plus TBL > 2X ULN [2, 6]: 0
- Number of Hepatic Events ALT > 5X ULN With TBL ≦ 2X ULN [2, 6]: 1
- Number of Hepatic Events Total [2, 6]: 1
- Percent of Hepatic Events [2, 6]: 7%
- Number of Hepatic Events ALT > 3X ULN Plus TBL > 2X ULN [2, 7]: 2
- Number of Hepatic Events ALT > 5X ULN With TBL ≦ 2X ULN [2, 7]: 3
- Number of Hepatic Events Total [2, 7]: 5
- Percent of Hepatic Events [2, 7]: 36%
- Number of Hepatic Events ALT > 3X ULN Plus TBL > 2X ULN [2, 8]: 2
- Number of Hepatic Events ALT > 5X ULN With TBL ≦ 2X ULN [2, 8]: 6
- Number of Hepatic Events Total [2, 8]: 8
- Percent of Hepatic Events [2, 8]: 57%
- Number of Patients ALT 3X to ≦ 5X ULN With TBL ≦ 2X ULN ([3]; 75 mg): 3
- Percent of ALT Elevations ([3]; 75 mg, share of 36 patients): 8%
- Number of Patients ALT 3X to ≦ 5X ULN With TBL ≦ 2X ULN ([3]; 150 mg): 4
- Percent of ALT Elevations ([3]; 150 mg, share of 36 patients): 11%
- Number of Patients ALT 3X to ≦ 5X ULN With TBL ≦ 2X ULN ([3]; 300 mg): 10
- Percent of ALT Elevations ([3]; 300 mg, share of 36 patients): 28%
- Number of Patients ALT 3X to ≦ 5X ULN With TBL ≦ 2X ULN ([3]; AGI-1067 all doses): 17
- Percent of ALT Elevations ([3]; AGI-1067 all doses, share of 36 patients with ALT 3X to ≦5X ULN): 47%
- Ratio 1067/Placebo Hepatic Events ([3]; before use of the risk identification tool): 2.4
- Number of Hepatic Events ALT > 3X ULN Plus TBL > 2X ULN [3, 9]: 0
- Number of Hepatic Events ALT > 5X ULN With TBL ≦ 2X ULN [3, 9]: 4
- Number of Hepatic Events Total [3, 9]: 4
- Percent of Hepatic Events [3, 9]: 17%
- Number of Hepatic Events ALT > 3X ULN Plus TBL > 2X ULN [3, 10]: 0
- Number of Hepatic Events ALT > 5X ULN With TBL ≦ 2X ULN [3, 10]: 2
- Number of Hepatic Events Total [3, 10]: 2
- Percent of Hepatic Events [3, 10]: 8%
- Number of Hepatic Events ALT > 3X ULN Plus TBL > 2X ULN [3, 11]: 4
- Number of Hepatic Events ALT > 5X ULN With TBL ≦ 2X ULN [3, 11]: 7
- Number of Hepatic Events Total [3, 11]: 11
- Percent of Hepatic Events [3, 11]: 46%
- Number of Hepatic Events ALT > 3X ULN Plus TBL > 2X ULN [3, 12]: 4
- Number of Hepatic Events ALT > 5X ULN With TBL ≦ 2X ULN [3, 12]: 13
- Number of Hepatic Events Total [3, 12]: 17
- Percent of Hepatic Events [3, 12]: 71%
- Incidence of ALT elevations 3X to ≦5X ULN versus placebo ([3]; diabetes mellitus patients): comparable

Compound: NNC(=O)c1ccncc1 [isoniazid]
- Serious hepatotoxicity, share of recipients [4]: about 0.1%
